Laboratory results taken from the NIST ThermoML archive (doi:10.1016/j.jct.2011.06.016).
± gives the expanded uncertainty stated by the source.

Experiment: refractive index (Na D-line) (dimensionless)
Conditions: 101.33 kPa, Liquid, Standard Abbe refractometry

SMILES | refractive index (298.15 K) | refractive index (313.15 K)
CCO [ethanol] | 1.3625 ± 0.0007 | –
CCCCCCCCCCCCCCCC(=O)OCC [ethyl hexadecanoate] | 1.437 ± 0.001 | –
CCCCCCCCCCCCCCCCCC(=O)OCC [ethyl octadecanoate] | – | 1.436 ± 0.001
OCC(O)CO [glycerol] | 1.471 ± 0.001 | –
O [water] | 1.333 ± 0.001 | –
